A compilation of properties of binary mixtures (doi:10.1016/j.molliq.2016.08.084)

Experiment: xn = mol fraction of the nth substance listed
Conditions: 101 kPa

CCCC[n+]1ccn(C)c1.F[B-](F)(F)F + O
viscosity (293.15 K, x2 = 0): 133.5 mPa·s | viscosity (293.15 K, x2 = 0.1135): 81.4 mPa·s | viscosity (293.15 K, x2 = 0.2063): 56.3 mPa·s | viscosity (293.15 K, x2 = 0.2802): 42 mPa·s | viscosity (298.15 K, x2 = 0.034): 88.8 mPa·s | viscosity (298.15 K, x2 = 0.2063): 45.4 mPa·s | viscosity (298.15 K, x2 = 0.2802): 34.4 mPa·s | viscosity (303.15 K, x2 = 0): 78.8 mPa·s | viscosity (303.15 K, x2 = 0.034): 69.8 mPa·s | viscosity (303.15 K, x2 = 0.1135): 51.7 mPa·s | viscosity (303.15 K, x2 = 0.2063): 37.2 mPa·s | viscosity (303.15 K, x2 = 0.2802): 28.7 mPa·s | viscosity (303.15 K, x2 = 0.3977): 19 mPa·s | viscosity (313.15 K, x2 = 0): 50.52 mPa·s | viscosity (313.15 K, x2 = 0.034): 45.58 mPa·s | viscosity (313.15 K, x2 = 0.0615): 41.37 mPa·s | viscosity (313.15 K, x2 = 0.2063): 26.09 mPa·s | viscosity (313.15 K, x2 = 0.2802): 20.59 mPa·s | viscosity (313.15 K, x2 = 0.3977): 14.1 mPa·s | viscosity (323.15 K, x2 = 0): 34.52 mPa·s | viscosity (323.15 K, x2 = 0.034): 31.56 mPa·s | viscosity (323.15 K, x2 = 0.1135): 25.01 mPa·s | viscosity (323.15 K, x2 = 0.2063): 19.17 mPa·s | viscosity (323.15 K, x2 = 0.2802): 15.49 mPa·s | viscosity (323.15 K, x2 = 0.3977): 10.89 mPa·s | viscosity (333.15 K, x2 = 0.034): 22.98 mPa·s | viscosity (333.15 K, x2 = 0.0615): 21.4 mPa·s | viscosity (333.15 K, x2 = 0.2063): 14.66 mPa·s | viscosity (333.15 K, x2 = 0.2802): 12.06 mPa·s | viscosity (333.15 K, x2 = 0.3977): 8.67 mPa·s | viscosity (343.15 K, x2 = 0): 18.69 mPa·s | viscosity (343.15 K, x2 = 0.034): 17.44 mPa·s | viscosity (343.15 K, x2 = 0.0615): 16.34 mPa·s | viscosity (343.15 K, x2 = 0.1135): 14.45 mPa·s | viscosity (343.15 K, x2 = 0.2063): 11.59 mPa·s | viscosity (343.15 K, x2 = 0.2802): 9.64 mPa·s | viscosity (343.15 K, x2 = 0.3977): 7.11 mPa·s | viscosity (353.15 K, x2 = 0): 14.54 mPa·s | viscosity (353.15 K, x2 = 0.034): 13.67 mPa·s | viscosity (353.15 K, x2 = 0.0615): 12.87 mPa·s | viscosity (353.15 K, x2 = 0.2063): 9.4 mPa·s | viscosity (353.15 K, x2 = 0.2802): 7.91 mPa·s | viscosity (363.15 K, x2 = 0): 11.64 mPa·s | viscosity (363.15 K, x2 = 0.1135): 9.39 mPa·s | viscosity (363.15 K, x2 = 0.2063): 7.79 mPa·s | viscosity (363.15 K, x2 = 0.3977): 5.16 mPa·s | viscosity (373.15 K, x2 = 0.034): 9.06 mPa·s | viscosity (373.15 K, x2 = 0.1135): 7.83 mPa·s | viscosity (373.15 K, x2 = 0.2063): 6.6 mPa·s | viscosity (373.15 K, x2 = 0.2802): 5.71 mPa·s | viscosity (373.15 K, x2 = 0.3977): 4.54 mPa·s
